Experiment [1] has as its system human colon cancer cells (HCT-116). In words: MTT tumor cell growth inhibition, HCT-116. To be noted: HCT-116, MTT, 72 hours, relative IC50. Format: cell-based. The text has this:
(§1) The tetrazolium salt (MTT) reduction method was used to test the activity of the compounds of the present invention. Human breast cancer cells (MDA-MB-231) (CAS cell library; catalog number: TCHu227), human lung cancer cells (A549) (ATCC® Number: CRM-CCL-185™), human colon cancer cells (HCT-116) (CAS cell library; catalog number: TCHu99), acute monocytic leukemia cells (MV4-11) (ATCC® Number: CRL-9591™), tissue cell lymphoma cells (U-937) (CAS cell library; catalog number: TCHu159), human acute promyelocytic leukemia cells (HL-60) (ATCC® Number: CCL-240™), chronic myelogenous leukemia cells (of K562) (CAS cell library; catalog number: TCHu191), human hepatocellular carcinoma cells (BEL-7404) (CAS cell library; catalog number: TCHu64), human pancreatic cancer cells (BxPC3) (ATCC® Number: […])) and human prostate cancer cells (PC-3) (ATCC®Number: […]) were inoculated in 96-well plates, 90 μL/well, with 3000 to 8000 cells in respective well; in the first row of plate, 100 μL/well culture medium was added; the 96-well plate was pre-incubated in an incubator at 37° C., 5% CO2, and 100% relative humidity for 24 hours.
(§2) A compound was weighed and configured to a 10 mM/L stock solution, and the compound was diluted three-fold sequentially from the highest concentration of 2 millimoles (mM); 95 μl the corresponding cell medium was added to each well of a V-bottom dispensing plate; 5 μl of the compound on a 200× plate was transferred to a 10× dispensing plate according to the concentration; 5 μl of dimethylsulfoxide (DMSO) was evenly mixed in the corresponding 95 μl cell culture medium as a vehicle control. 10 μl of the compound-medium in each well of the 10× dispensing plate was added to a 96-well plate already plated with cells. […]
(§3) After the compound for cells was treated for 72 hours, 20 microliters of 5 mg/ml MTT was added to each well; all the steps need to be aseptic. […] The absorbance at 490 nm was read on a SpectraMax M2e instrument. The compound activity (relative IC50) was calculated using GraphPad Prism software.

Experiment [2] deals with tissue cell lymphoma cells (U-937). In words: MTT tumor cell growth inhibition, U-937. In kind it is cell-based. As to conditions: Homo sapiens; U-937, MTT, 72 hours, relative IC50.
Description: as §1, §2, §3

Experiment [3] relates to human pancreatic cancer cells (BxPC3). The experiment in a line: MTT tumor cell growth inhibition, BxPC3. In kind it is cell-based. To be noted: BXPC-3, 72 hours, relative IC50.
Description: as §1, §2, §3

The test system of experiment [4] is Human breast cancer cell line MDA-MB-231. In words: In vivo pharmacodynamic study of compound A, MDA-MB-231 nude mice transplanted tumor model. More on the design: species or system BALB/C nude mice. To be noted: MDA-MB-231 model, 2.4 mg/kg, q4d, 4x. On the procedure: (§4) Female BALB/C nude mice 6 weeks to 8 weeks old and weighing about 19 g to 29 g were taken (Supplier: Beijing Vital River Laboratory Animal Technology Co., Ltd.) and raised for a week. A human cancer nude mice […] transplanted tumor model was established: Human breast cancer cell line MDA-MB-231 (ATCC® Number: HTB-26™) and human lung cancer cell line NCI-H460 (ATCC® Number: HTB-177™) were incubated. The monolayer tumor cells were digested and detached; then, they were collected and resuspended in a serum-free culture medium, and then were adjusted to a concentration of 2×10^6/0.2 mL. They were put into an iced box and brought to an animal house. A syringe with a No. 6 needle was used to directly take a 0.2 mL cell suspension and transplanted it into the rear subcutaneous scapular regions of the left axillaries of the nude mice at 2×10^6/0.2 mL per mouse. Tumor volumes were measured once every 2 days to 3 days. After two weeks, tumor-bearing nude mice with vigorous tumor growth and no ulceration were selected, the tumors were removed from them under sterile conditions. The tumor tissues were cut to about 2 mm to 3 mm in diameter and inoculated in the rear subcutaneous scapular regions of the left axillaries of the nude mice. After passage for three generations, when the tumor volume grew to 100 mm^3, nude mice with tumor masses that were too large or too small were removed and randomly grouped for administration.
(§5) The mice were randomly divided into five groups, including the negative control group (vehicle), positive control group (Romidepsin, 2.4 mg/kg), treatment group with the high, medium, and low doses of compound A (respectively 7.2 mg/kg, 4.8 mg/kg, 2.4 mg/kg, wherein the high dose was lower than the maximum tolerated dose, MTD); there were six nude mice in each group; intravenous administration was given every 4 days; 4 doses were given. During the period, the weights and tumor volumes of the animals were measured every 2 days, and the number of animal deaths was recorded. 24 hours after the last administration, the animals were sacrificed. The tumor volumes, tumor weights, and body weights of nude mice were measured; tumor volume growth curves, nude mice weight growth curves and tumor inhibition rates, mortality of the animals were plotted; the relative tumor proliferation rate T/C (%) was calculated; according to the formula T/C (%)=TRTV/CRTV*100%. (TRTV: treatment group RTV; CRTV: negative control group RTV, relative tumor volume RTV=Vt/V0, wherein V0 is the tumor volume at the time of administration by group; Vt is the post-administration tumor volume).

The subject of experiment [5] is human hepatocellular carcinoma cells (BEL-7404). In words: MTT tumor cell growth inhibition, BEL-7404. In kind it is cell-based. To be noted: BEL-7404, MTT, 72 hours, relative IC50.
Description: as §1, §2, §3

Experiment [6] relates to acute monocytic leukemia cells (MV4-11). The experiment in a line: MTT tumor cell growth inhibition, MV4-11. In kind it is cell-based. As to conditions: Homo sapiens; MV4-11, MTT, 72 hours, relative IC50.
Description: as §1, §2, §3

Experiment [7] relates to human acute promyelocytic leukemia cells (HL-60). In words: MTT tumor cell growth inhibition, HL-60. In kind it is cell-based. As to conditions: HL-60, MTT, 72 hours, relative IC50.
Description: as §1, §2, §3

In experiment [8] the test system is human lung cancer cell line NCI-H460. The experiment in a line: In vivo pharmacodynamic study of compound A, NCI-H460 nude mice transplanted tumor model. Also noted: species or system BALB/C nude mice. To be noted: 2.4 mg/kg, q4d, 4x. The procedure:
as §4, §5

As to `C/C=C1\NC(=O)[C@H]2CSSCC/C=C/[C@H](CC(=O)N[C@H](C(C)C)C(=O)N2)OC(=O)[C@H](C(C)C)NC1=O` [Romidepsin, reference compound], the IC50 in experiment [1] was 6.5 nM; in experiment [2] it was 7.2 nM; in experiment [3] it was 8.7 nM; in experiment [5], 6.4 nM; in experiment [6], 6.8 nM; in experiment [7], 8.6 nM. Further, the “Relative tumor proliferation rates T/C (%)” value in experiment [4] is reported as 48.9%(2.4 mg/kg, q4d, 4x); in experiment [8] it was 42.2%(2.4 mg/kg, q4d, 4x).

In general, IC50 refers to the midpoint of a concentration-inhibition curve. Low values mean greater potency in that assay, high ones weaker potency in that assay.

Values taken from US20180057530A1, “CYCLIC PEPTIDE COMPOUND, AND PREPARATION AND USE THEREOF” (Zhejiang Hisun Pharmaceutical Co., Ltd., priority 2015, published 2018).
